Assay results as given in patent US20220249590A1, “EFFICACY OF GARLIC THERAPY IN CONTROLLING INFLAMMATORY CYTOKINES AND CARTILAGE DEGRADATION IN KNEE OSTEOARTHRITIS AND IMPROVING QUALITY OF LIFE” (priority 2021, published 2022).

Legend:
[1] = tested on: knee osteoarthritis patients; assay: Study II: garlic versus glucosamine sulphate, clinical manifestations; type: in vivo, human
Experimental: In the second study, I had compared the effect of garlic versus glucosamine on cartilage degeneration in knee osteoarthritis patients. I have chosen glucosamine sulfate to be the comparing drug due to its well known chondroprotective properties and it has been in the market for a while to control the symptoms of knee osteoarthritis.
(§1) Garlic group receive 900 mg of garlic capsules daily for 8 weeks. The glucosamine group received 1500 mg glucosamine sulfate daily for 8 weeks. As regard baseline affection of knee in both groups. The garlic group has bilateral knee OA in 100% of patients and significant knee deformity compared to glucosamine group who were having only Bilateral knee affection in 70% of patients.

MMP13 = assay: Study II: level of MMP13; type: in vivo, human; details: garlic capsules 900 mg daily or glucosamine sulfate 1500 mg daily, 8 weeks; no difference between the groups
Experimental: as §1

glutathione peroxidase [2] = assay: Study II: level of glutathione peroxidase; type: in vivo, human; details: garlic capsules 900 mg daily or glucosamine sulfate 1500 mg daily, 8 weeks; no difference between the groups
Experimental: as §1

collagenase = assay: Study II: level of collagenase; type: in vivo, human; details: garlic capsules 900 mg daily or glucosamine sulfate 1500 mg daily, 8 weeks; no difference between the groups
Experimental: as §1

mice knee osteoarthritis = details: after intake of diet rich in selenium; cited from earlier work
glutathione peroxidase [3] = details: mice, after intake of diet rich in selenium; cited from earlier work
lupus mice = details: cited from earlier work
[4] = tested on: rheumatoid arthritis patients; details: selenium intake; cited from earlier work
adjuvant arthritis = adjuvant arthritis in rats; cited from earlier work

## N[C@H]1C(O)O[C@H](CO)[C@@H](O)[C@@H]1O.O=S(=O)(O)O (some centres unmarked) [glucosamine sulfate]
[1]; end of study, glucosamine group vs garlic group
  body mass index, mean percent change: higher mean percent change than garlic group
[1]; garlic capsules 900 mg daily or glucosamine sulfate 1500 mg daily, 8 weeks
  pain score: significantly improved in both groups with no difference between groups
[1]; garlic capsules 900 mg daily or glucosamine sulfate 1500 mg daily, 8 weeks, end of study vs baseline
  body mass index: did not significantly change
MMP13
  level of MMP13: significant reduction
Glutathione peroxidase [2]
  level of glutathione peroxidase: significant reduction
collagenase
  level of collagenase: significant reduction

## [Se] [selenium]
Mice knee osteoarthritis
  mice knee osteoarthritis: significant reduction
Glutathione peroxidase [3]
  expression of glutathione peroxidase in synovium: increased expression
Lupus mice
  indices of inflammation: improved indices of inflammation
[4]
  pain, swollen and tender joints numbers: reduction
Adjuvant arthritis
  indices of inflammation: improved indices of inflammation
